Test results taken from patent publication US20260234185A1, “ANTI-AGING COMPOSITION COMPRISING PEPTIDE COMPLEX AS ACTIVE INGREDIENT” (priority 2023, published 2026).
Where no end group is shown, it is not given here.

Experiments:
Format in all cases: cell-based
sirtuin 1 (SIRT1) gene = test: RT-PCR of SIRT1 gene expression in palmitate-treated adipocytes; settings: 3T3-L1 adipocytes, 25 μM palmitate 30 minutes; 0.2, 2, 20 μg/mL; 24 hours; RT-PCR vs palmitate control (PA) (FIGS. 4a, 4b)
Experimental: (§1) An experiment was performed to determine whether the peptide complex prepared in Preparation Example 1 increases the gene expression of longevity-related genes, FGF21, SIRT1, AMPK, and FOXO3A, in adipocytes in a state of insulin metabolic disorder induced by palmitate treatment.
(§2) When 3T3-L1 preadipocytes reached 80% confluence, they were seeded at 5×10^3 cells/well in a 96-well plate and used for the experiment. Two days after reaching confluence, the medium was replaced with differentiation-inducing medium to induce the differentiation into adipocytes, and two days after the induction, the medium was cultured for 2 days in a medium containing 10% FBS and 10 μg/mL insulin, and then the medium was replaced with 10% FBS every 2 days until their differentiation into adipocytes. After differentiation was complete, the medium was replaced with glucose-free medium, cultured for 16 hours, and then starvation was induced by culturing for 40 minutes in 100 μL KPPH buffer containing 2% BSA. After treating with 25 μM palmitate for 30 minutes, the peptide complexes were treated at concentrations of 0.2 μg/mL, 2 μg/mL, and 20 μg/mL, cultured for 24 hours, and RNA was extracted after 24 hours and RT-PCR was performed. […] Subsequently, the mRNA expression pattern was determined by agarose gel electrophoresis.

[1] = system: fibroblast growth factor 21 (FGF21); test: Western blot of FGF21 protein expression in adipocytes; settings: differentiated 3T3-L1 adipocytes; 0.2, 2, 20 μg/mL; 1 hour; Western blot (FIGS. 1a, 1b)
Experimental: An experiment was performed to determine whether the peptide complex prepared in Preparation Example 1 using adipocytes increases the phosphorylation of AMP-activated protein kinase (AMPK), which is a longevity-related protein, and increases the expression levels of sirtuin 1 (SIRT1) and fibroblast growth factor 21 (FGF21) proteins in adipocytes.
(§3) When 3T3-L1 preadipocytes reached 80% confluence, they were seeded at 5×10^3 cells/well in a 96-well plate and used for the experiment. Two days after reaching confluence, the medium was replaced with a differentiation-inducing medium to induce the differentiation into adipocytes, and two days after the induction, the cells were cultured for 2 days in a medium containing 10% FBS and 10 μg/mL insulin, and then the medium was replaced with 10% FBS every 2 days until their differentiation into adipocytes. Once the differentiation was complete, the medium was replaced with a serum-free medium and cultured for 4 hours to induce starvation. The peptide complexes were treated at concentrations of 0.2 μg/mL, 2 μg/mL, and 20 μg/mL, incubated for 1 hour, dissolved by adding dissolution buffer thereto, and the proteins obtained by centrifugation at 4° C. and 12,000 rpm for 30 minutes were quantified using a BCA kit. […]

FOXO3A gene = test: RT-PCR of FOXO3A gene expression in palmitate-treated adipocytes; settings: 3T3-L1 adipocytes, 25 μM palmitate 30 minutes; 0.2, 2, 20 μg/mL; 24 hours; RT-PCR vs palmitate control (PA) (FIGS. 4a, 4b)
Experimental: as §1, §2

SIRT1 (sirtuin1) protein = test: Western blot of SIRT1 protein expression in palmitate-treated adipocytes (insulin metabolic disorder); settings: 3T3-L1 adipocytes, 25 μM palmitate 30 minutes; 0.2, 2, 20 μg/mL; 24 hours; Western blot (FIGS. 3a, 3b)
Experimental: An experiment was performed to determine whether the peptide complex prepared in Preparation Example 1 increases the phosphorylation of AMP-activated protein kinase (AMPK) and the expression level of SIRT1 (sirtuin1) protein in adipocytes in a state of insulin metabolic disorder induced by palmitate treatment.
as §3, with “Once” for “Once the”, “starvation. After 30 minutes of treatment with 25 μM palmitate, the” for “starvation. The”, “20 μg/mL and” for “20 μg/mL,”, “for 24 hours. After dissolving” for “for 1 hour, dissolved”, “dissolution buffer,” for “dissolution buffer thereto, and”

peptide complex: prepared by mixing equal amounts of the peptide of SEQ ID NO: 1 (LKTRN) and the peptide of SEQ ID NO: 2 (KGSATGWMA) (also: mixture of two peptides)
increased: expression of sirtuin 1 (SIRT1) gene (sirtuin 1 (SIRT1) gene) | expression level of FGF21 protein [1] | expression of FOXO3A gene (FOXO3A gene) | expression level of SIRT1 protein (SIRT1 (sirtuin1) protein)
